The source of these data is US20240109855A1, “ANTI-QUORUM SENSING, ANTI-BIOFILM, AND INFLAMMATION ATTENUATING COMPOUNDS, COMPOSITIONS, AND METHODS OF USING SAME” (priority 2021, published 2024).

Structures are written as SMILES. “Also recorded” adds a separate entry of the source.

The subject of data set [1] is NF-kB. Briefly: NF-kB-luciferase reporter gene assay in L428 cells. Also: key: +: active; −: inactive. In kind it is cell-based, human. The settings on record: Table 6 summary. Here is the method:
FIG. 7 includes a vertical bar graph showing a dose response of NF-kB activation according to an NF-kB reporter gene luciferase assay. L428 cells were stably transfected with the NF-kB luciferase reporter gene. The cells were incubated with the compounds at different concentrations for 2 hours. […] The results represent the percentage of NF-kB activation as compared to vehicle (DMSO) treated cells. All samples were normalized to protein concentration. Mean+SD, Two-way ANOVA and Tukey's multiple comparison test. 95% confidence interval (p-values *≤0.0332, **≤0.0021, ***≤0.0002).
L428 cells stable transfectants with the luciferase NF-kB-Luc reporter gene were generated previously described (Ozer et al., 2009), and were maintained in 500 μg/ml of G418 (G418 disulfate salt, Sigma-Aldrich). The cells (5×10^5 /well in triplicate) were incubated for 2 hrs. in 1 ml of medium containing the solvent (DMSO) or different concentrations of the molecules tested. Cells were then harvested, lysed, and monitored by a luciferase reporter assay kit (Promega) according to the manufacturer's instructions. Measurements were carried out using a luminometer (Promega, GLOMAX™ 20/20 Luminometer). Data were normalized to the protein concentration in each lysate as measured by the Bradford method (BioRad) and normalized to the control. Experiments were repeated at least three times.

The subject of data set [2] is Chromobacterium violaceum (CV026). Briefly: Quorum sensing inhibition test with bio-reporter CV026 (TLC overlay). As to Degree of quorum sensing inhibition (QSI), CV026: key: −: no inhibition; +: low inhibition; ++: medium inhibition; +++: strong inhibition. It is filed as cell-based. The essentials:
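Compounds (40 mM in acetonitrile, 20 μl) were spotted on TLC and overlaid with soft agar reporter cultures, incubated overnight at 30 °C. CV026 was in LB with 500 nM 3-oxo-C6 (purple pigment), and KYC55 was in AT medium with 5 nM 3-oxo-C8 and 60 μg/ml X-gal (blue). Inhibition zone diameter was measured.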

The subject of data set [3] is quorum sensing (CV026 and KYC55). Briefly: Quorum sensing inhibition, overall statement over the bio-reporter bacteria. In kind it is cell-based. The essentials:
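Compounds (20 μl of 40 mM acetonitrile stock) were spotted on TLC plates overlaid with reporter in soft agar: CV026 with 500 nM 3-oxo-C6 (purple pigment) or KYC55 with 5 nM 3-oxo-C8 and 60 μg/ml X-gal (blue pigment). After overnight incubation at 30 °C, the pigment-free inhibition zone was measured.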

Data set [4] deals with P. aeruginosa. Briefly: Motility of P. aeruginosa. In kind it is cell-based. The following applies: data not shown.
Data set [5] deals with gram-positive and gram-negative bacteria. The data set is described as follows: Antibacterial activity, overall statement (diffusion discs test). Also: key: +: active; −: inactive. It is filed as cell-based. The following applies: Table 6 summary. In short, it runs like this: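 Compounds in acetonitrile at 40 mM, 20 μl dried onto filter paper discs, laid on lawns of B. subtilis, S. aureus, A. baumannii (LB agar) or S. sobrinus, S. mutans (BHI agar) from overnight cultures. Incubated overnight at 37° C; inhibition zone diameter measured.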

Data set [6] in a line: in vitro. The settings on record: human, LC50. In short, it runs like this: (§1)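 30,000 cells/well exposed to coumaperine derivatives at varying concentrations or DMSO vehicle for 48 h at 37 °C, 5% CO2, then XTT added for 2 h. Absorbance at 450 nm minus 650 nm and blank, normalized to DMSO-treated cells (100% viability); triplicate, two independent tests, mean+SD.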
Data set [7] relates to L428 cells. Briefly: in vitro. The essentials:
as §1

In the case of `COc1cc(/C=C/C(=O)N2CCC=CC2=O)cc(O)c1O` [PL-18, Dihydroxy piperlongumine], in data set [1], the Anti-inflammatory entry is “+”. In data set [2] (Table 2, piperlongumine derivatives), the “Degree of quorum sensing inhibition (QSI), CV026” value is given as “++”. In addition, the “QSI activity against CV026, in words” value in data set [2] (running text) is “moderate activity”. Moreover, the QSI result in data set [3] (Table 6 summary) is listed as “+”. The “QSI activity overall, in words” value in data set [3] (running text) is recorded as “moderate”. The Inhibition of motility entry in data set [4] is listed as “not shown to inhibit; also recorded: not found to inhibit”. The Antibacterial entry in data set [5] is “−”. In data set [6], this compound displayed a CC50 at 48 h of 9.3 µM. In addition, the Cytotoxic result in data set [7] is recorded as “+”.
